Data as given in patent USRE39591E1, “6-O-substituted ketolides having antibacterial activity” (Abbott Laboratories, priority 1996, dated 2007).

Tested on: up to 32 different microorganisms
Test: in vitro antibacterial activity (MIC), agar dilution on Brain Heart Infusion (BHI) agar with Steers replicator
Assay type: cell-based
Details: unit assumed
Description: Representative compounds of the present invention were assayed in vitro for antibacterial activity as follows: Twelve petri dishes containing successive aqueous dilutions of the test compound mixed with 10 mL of sterilized Brain Heart Infusion (BHI) agar (Difco 0148-01-5) were prepared. Each plate was inoculated with 1:100 (or 1:10 for slow-growing strains, such as Micrococcus and Streptococcus) dilutions of up to 32 different microorganisms, using a Steers replicator block. The inoculated plates were incubated at 35°-37° C. for 20 to 24 hours. In addition, a control plate, using BHI agar containing no test compound, was prepared and incubated at the beginning and end of each test.
An additional plate containing a compound having known susceptibility patterns for the organisms being tested and belonging to the same antibiotic class as the test compound was also prepared and incubated as a further control, as well as to provide test-to-test comparability. Erythromycin A was used for this purpose.
After incubation, each plate was visually inspected. The minimum inhibitory concentration (MIC) was defined as the lowest concentration of drug yielding no growth, a slight haze, or sparsely isolated colonies on the inoculum spot as compared to the growth control.

[1] = Candida albicans CCH 442 (code TT)
[2] = Enterococcus faecism ATCC 8043 (code II)
[3] = Escherichia coli DC-2 (code SS)
[4] = Escherichia coli JUHL (code QQ)
[5] = Haemophilis influenzae DILL AMP R (code WW)
[6] = Micrococcus luteus ATCC 4698 (code PP)
[7] = Mycobacterium smegmatis ATCC 114 (code UU)
[8] = Nocardia Asteroides ATCC9970 (code VV)
[9] = Staphylococcus aureus 1775 (code GG)
[10] = Staphylococcus aureus A5177 (code BB)
[11] = Staphylococcus aureus A-5278 (code CC)
[12] = Staphylococcus aureus ATCC 6538P (code AA)
[13] = Staphylococcus aureus CMX 553 (code FF)
[14] = Staphylococcus aureus CMX 642A (code DD)
[15] = Staphylococcus aureus NCTC10649M (code EE)
[16] = Staphylococcus epidermidis 3519 (code HH)
[17] = Streptococcus Pneumonia 5649 (code ZZA)
[18] = Streptococcus Pneumonia 5979 (code ZZ)
[19] = Streptococcus Pneumonia ATCC6303 (code XX)
[20] = Streptococcus Pneumonia GYR 1171 (code YY)
[21] = Streptococcus agalactiae CMX 508 (code KK)
[22] = Streptococcus bovis A-5169 (code JJ)
[23] = Streptococcus pyogenes 930 (code MM)
[24] = Streptococcus pyogenes EES61 (code LL)
[25] = Streptococcus pyogenes PIU 2548 (code NN)
[26] = Micrococcus luteus ATCC 9341 (code OO)

| Compound | MIC [1] [µg/mL] | MIC [2] [µg/mL] | MIC [3] [µg/mL] | MIC (Escherichia coli SS (code RR)) [µg/mL] | MIC [5] [µg/mL] | MIC [6] [µg/mL] | MIC [7] [µg/mL] | MIC [8] [µg/mL] | MIC [9] [µg/mL] | MIC [10] [µg/mL] | MIC [11] [µg/mL] | MIC [12] [µg/mL] | MIC [13] [µg/mL] | MIC [14] [µg/mL] | MIC [15] [µg/mL] | MIC [16] [µg/mL] | MIC [17] [µg/mL] | MIC [18] [µg/mL] | MIC [19] [µg/mL] | MIC [20] [µg/mL] | further results |
| --- | --- | --- | --- | --- | --- | --- | --- | --- | --- | --- | --- | --- | --- | --- | --- | --- | --- | --- | --- | --- | --- |
| C=CCO[C@@]1(C)C[C@@H](C)C(=O)[C@H](C)[C@H]2OC(=O)O[C@]2(C)[C@@H](CC)OC(=O)[C@H](C)C(=O)[C@H](C)[C@H]1O[C@@H]1O[C@H](C)C[C@H](N(C)C)[C@H]1O [Example 71, Compound of Formula (IX): L is CO, T is O, R is —CH2CH═CH2] | > 100 | 1.56 | > 100 | 3.1 | 64 | 0.78 | 25 | 0.39 | > 100 | 0.39 | > 100 | 0.78 | 3.1 | 1.56 | 0.78 | 3.1 | 1 | > 128 | 0.25 | 0.25 | MIC [4]: > 100 µg/mL; MIC [21]: 0.2 µg/mL; MIC [22]: 0.2 µg/mL; MIC [23]: > 100 µg/mL; MIC [24]: 0.39 µg/mL; MIC [25]: 0.39 µg/mL |
| CC[C@H]1OC(=O)[C@H](C)C(=O)[C@H](C)[C@@H](O[C@@H]2O[C@H](C)C[C@H](N(C)C)[C@H]2O)[C@@](C)(OCC=Cc2ccccc2)C[C@@H](C)C(=O)[C@H](C)[C@H]2OC(=O)O[C@@]21C [Example 72, Compound of Formula (IX): L is CO, T is O, R is —CH2CH═CH-Phenyl] | > 100 | 0.05 | > 100 | 0.78 | 8 | 0.1 | 0.78 | 0.1 | 100 | 0.1 | > 100 | 0.1 | 0.2 | 0.1 | 0.1 | 0.1 | 0.5 | 64 | 0.06 | 0.06 | MIC [26]: 0.01 µg/mL; MIC [21]: 0.01 µg/mL; MIC [22]: 0.01 µg/mL; MIC [23]: 50 µg/mL; MIC [24]: < 0.005 µg/mL; MIC [25]: 0.2 µg/mL |
| CC[C@H]1OC(=O)[C@H](C)C(=O)[C@H](C)[C@@H](O[C@@H]2O[C@H](C)C[C@H](N(C)C)[C@H]2O)[C@@](C)(OCCCc2ccccc2)C[C@@H](C)C(=O)[C@H](C)[C@H]2OC(=O)O[C@@]21C [Example 73, Compound of Formula (IX): L is CO, T is O, R is —CH2CH2CH2-Phenyl] | > 100 | 0.1 | > 100 | 3.1 | 16 | 0.2 | 0.78 | 0.39 | 100 | 0.39 | > 100 | 0.39 | 0.39 | 0.39 | 0.39 | 0.39 | 1 | 64 | 0.125 | 0.125 | MIC [4]: > 100 µg/mL; MIC [26]: 0.1 µg/mL; MIC [21]: 0.05 µg/mL; MIC [22]: 0.05 µg/mL; MIC [23]: 12.5 µg/mL; MIC [24]: 0.05 µg/mL; MIC [25]: 0.2 µg/mL |
| CC[C@H]1OC(=O)[C@H](C)C(=O)[C@H](C)[C@@H](O[C@@H]2O[C@H](C)C[C@H](N(C)C)[C@H]2O)[C@@](C)(OCC=Cc2ccc(Cl)cc2)C[C@@H](C)C(=O)[C@H](C)[C@H]2OC(=O)O[C@@]21C [Example 74, Compound of Formula (IX): L is CO, T is O, R is —CH2CH═CH-(4-chlorophenyl)] | > 100 | 0.1 | > 100 | 3.3 | 4 | 0.2 | 0.39 | 0.39 | > 100 | 0.2 | > 100 | 0.2 | 0.2 | 0.2 | 0.2 | 0.2 | 0.5 | 32 | 0.125 | 0.125 | MIC [4]: > 100 µg/mL; MIC [26]: 0.05 µg/mL; MIC [21]: 0.05 µg/mL; MIC [22]: 0.05 µg/mL; MIC [23]: 50 µg/mL; MIC [24]: 0.05 µg/mL; MIC [25]: 0.39 µg/mL |
| CC[C@H]1OC(=O)[C@H](C)C(=O)[C@H](C)[C@@H](O[C@@H]2O[C@H](C)C[C@H](N(C)C)[C@H]2O)[C@@](C)(OCC=Cc2cnc3ccccc3c2)C[C@@H](C)C(=O)[C@H](C)[C@H]2OC(=O)O[C@@]21C [Example 75, Compound of Formula (IX): L is CO, T is O, R is —CH2CH═CH-(3-quinolyl)] | 100 | 0.1 | > 100 | 0.39 | 2 | 0.2 | 0.39 | 0.05 | > 100 | 0.1 | > 100 | 0.1 | 0.1 | 0.1 | 0.1 | 0.1 | 0.5 | 64 | 0.03 | 0.03 | MIC [4]: 50 µg/mL; MIC [26]: 0.02 µg/mL; MIC [21]: 0.01 µg/mL; MIC [22]: < 0.005 µg/mL; MIC [23]: 3.1 µg/mL; MIC [24]: 0.02 µg/mL; MIC [25]: 0.1 µg/mL |
| C=CCO[C@@]1(C)C[C@@H](C)C(=O)[C@H](C)[C@H]2NC(=O)O[C@]2(C)[C@@H](CC)OC(=O)[C@H](C)C(=O)[C@H](C)[C@H]1O[C@@H]1O[C@H](C)C[C@H](N(C)C)[C@H]1O [Example 102, Formula (IX): L is CO, T is NH, R is —CH2CH═CH2] | > 100 | 0.78 | > 100 | 1.56 | 64 | 0.78 | 25 | 1.56 | > 100 | 1.56 | > 100 | 0.78 | 1.56 | 1.56 | 0.78 | 1.56 | 0.25 | > 64 | 0.5 | 0.25 | MIC [4]: > 100 µg/mL; MIC [26]: 0.2 µg/mL; MIC [21]: 0.2 µg/mL; MIC [22]: 0.2 µg/mL; MIC [23]: > 100 µg/mL; MIC [24]: 0.2 µg/mL; MIC [25]: 0.2 µg/mL |
| CC[C@H]1OC(=O)[C@H](C)C(=O)[C@H](C)[C@@H](O[C@@H]2O[C@H](C)C[C@H](N(C)C)[C@H]2O)[C@@](C)(OCC=Cc2ccccc2)C[C@@H](C)C(=O)[C@H](C)[C@H]2NC(=O)O[C@@]21C [Example 103, Compound of Formula (IX): L is CO, T is NH, R is —CH2CH═CH-Phenyl] | > 100 | 0.05 | 100 | 0.39 | 4 | 0.1 | 0.2 | 0.02 | > 100 | 0.1 | > 100 | 0.1 | 0.1 | 0.1 | 0.1 | 0.1 | 0.25 | 128 | 0.03 | 0.03 | MIC [4]: 100 µg/mL; MIC [26]: 0.01 µg/mL; MIC [21]: 0.02 µg/mL; MIC [22]: 0.01 µg/mL; MIC [23]: 100 µg/mL; MIC [24]: 0.02 µg/mL; MIC [25]: 0.1 µg/mL |
| CC[C@H]1OC(=O)[C@H](C)C(=O)[C@H](C)[C@@H](O[C@@H]2O[C@H](C)C[C@H](N(C)C)[C@H]2O)[C@@](C)(OCC=Cc2cnc3ccccc3c2)C[C@@H](C)C(=O)[C@H](C)[C@H]2NC(=O)O[C@@]21C [Example 104, Compound of Formula (IX): L is CO, T is NH, R is —CH2CH═CH-(3-quinolyl)] | > 100 | 0.05 | 50 | 0.39 | 2 | 0.05 | 0.39 | 0.01 | > 100 | 0.05 | > 100 | 0.05 | 0.1 | 0.05 | 0.1 | 0.05 | 0.25 | 16 | 0.03 | 0.03 | MIC [4]: 50 µg/mL; MIC [26]: ≤ 0.005 µg/mL; MIC [21]: 0.01 µg/mL; MIC [22]: 0.01 µg/mL; MIC [23]: 1.56 µg/mL; MIC [24]: ≤ 0.005 µg/mL; MIC [25]: 0.1 µg/mL |
